Values quoted from earlier work in PubChem BioAssay AID1259409 (Chemical Carcinogenesis Research Information System (CCRIS), 2018).

Tested on: rodent chemically induced tumor inhibition, incidence and multiplicity
Assay: CCRIS tumor inhibitor studies
Conditions: Dose [Inhibitor]: 0, Species: MOUSE

Question: Which “tumour outcome (control, treated, inhibition, significance)” value (Carcinogen: METHYLCHOLANTHRENE, 56-49-5, 5.5 MG IN 0.05 ML SUNFLOWER OIL 1/WK FOR 1 YR BEGINNING POST CARCINOGEN TREATMENT (STUDY DURATION: 24 MO), Route [Inhibitor]: GAVAGE, Strain/Sex: SWISS/FEMALE, Target Tissue: Type of Lesion: LUNG: PAPILLARY ADENOMA AND ADENOCARCINOMA, Dose [Carcinogen]: 0.01 MG ON D 1, 7, 14 AND 21 AFTER BIRTH, Promoter: NONE USED) does the source give for O=C(/C=C/C=C/c1ccc2c(c1)OCO2)N1CCCCC1 here?
Answer: The value was 7/11 (64%), 9/12 (75%), -17%, not calculated.

Question: What about the “tumour outcome (control, treated, inhibition, significance)” value (Carcinogen: METHYLCHOLANTHRENE, 56-49-5, 5.5 MG IN 0.05 ML SUNFLOWER OIL 1/WK FOR 1 YR BEGINNING POST CARCINOGEN TREATMENT (STUDY DURATION: 24 MO), Route [Inhibitor]: GAVAGE, Strain/Sex: SWISS/MALE, Target Tissue: Type of Lesion: LIVER: HEPATOCELLULAR ADENOMA AND CARCINOMA, Promoter: NONE USED) of the same compound?
Answer: The value was 3/13 (23%), 4/13 (31%), -35%, not calculated.

Question: What about the “tumour outcome (control, treated, inhibition, significance)” value (Carcinogen: METHYLCHOLANTHRENE, 56-49-5, 5.5 MG IN 0.05 ML SUNFLOWER OIL 1/WK FOR 1 YR BEGINNING POST CARCINOGEN TREATMENT (STUDY DURATION: 24 MO), Route [Inhibitor]: GAVAGE, Strain/Sex: SWISS/MALE, Target Tissue: Type of Lesion: LUNG: PAPILLARY ADENOMA AND ADENOCARCINOMA, Dose [Carcinogen]: 0.01 MG ON D 1, 7, 14 AND 21 AFTER BIRTH, Promoter: NONE USED) of the same compound?
Answer: The value was 10/13 (77%), 10/13 (77%), 0%, not significant.

Question: What about the “tumour outcome (control, treated, inhibition, significance)” value (Carcinogen: METHYLCHOLANTHRENE, 56-49-5, 5.5 MG IN 0.05 ML SUNFLOWER OIL 1/WK FOR 1 YR BEGINNING POST CARCINOGEN TREATMENT (STUDY DURATION: 24 MO), Route [Inhibitor]: GAVAGE, Strain/Sex: SWISS/MALE, Target Tissue: Type of Lesion: SKIN: SARCOMA AND CARCINOMA, Dose [Carcinogen]: 0.01 MG ON D 1, 7, 14 AND 21 AFTER BIRTH, Promoter: NONE USED) of the same compound?
Answer: The value was 5/13 (38%), 2/13 (15%), 61%, not calculated.

Question: And the “tumour outcome (control, treated, inhibition, significance)” value (Carcinogen: METHYLCHOLANTHRENE, 56-49-5, 5.5 MG IN 0.05 ML SUNFLOWER OIL 1/WK FOR 1 YR BEGINNING POST CARCINOGEN TREATMENT (STUDY DURATION: 24 MO), Route [Inhibitor]: GAVAGE, Strain/Sex: SWISS/MALE, Target Tissue: Type of Lesion: SPLEEN: LYMPHOMA, Dose [Carcinogen]: 0.01 MG ON D 1, 7, 14 AND 21 AFTER BIRTH, Promoter: NONE USED)?
Answer: Its value is 2/13 (15%), 3/13 (23%), -53%, not calculated.

Question: And the “tumour outcome (control, treated, inhibition, significance)” value (Carcinogen: SAFROLE, 94-59-7, 5.5 MG IN 0.05 ML SUNFLOWER OIL 1/WK FOR 1 YR BEGINNING POST CARCINOGEN TREATMENT (STUDY DURATION: 24 MO), Route [Inhibitor]: GAVAGE, Strain/Sex: SWISS/FEMALE, Target Tissue: Type of Lesion: LUNG: PAPILLARY ADENOCARCINOMA, Dose [Carcinogen]: 0.2 MG ON D 1 AND 7 AFTER BIRTH THEN 0.4 MG ON D 14 AND 21, Promoter: NONE USED)?
Answer: Its value is 3/18 (17%), 2/19 (11%), 35%, not calculated.

Question: What about the “tumour outcome (control, treated, inhibition, significance)” value (Carcinogen: SAFROLE, 94-59-7, 5.5 MG IN 0.05 ML SUNFLOWER OIL 1/WK FOR 1 YR BEGINNING POST CARCINOGEN TREATMENT (STUDY DURATION: 24 MO), Route [Inhibitor]: GAVAGE, Strain/Sex: SWISS/FEMALE, Target Tissue: Type of Lesion: SKIN: SARCOMA, Dose [Carcinogen]: 0.2 MG ON D 1 AND 7 AFTER BIRTH THEN 0.4 MG ON D 14 AND 21, Promoter: NONE USED) of the same compound?
Answer: The value was 2/18 (11%), 0/19 (0%), 100%, not calculated.

Question: What about the “tumour outcome (control, treated, inhibition, significance)” value (Carcinogen: SAFROLE, 94-59-7, 5.5 MG IN 0.05 ML SUNFLOWER OIL 1/WK FOR 1 YR BEGINNING POST CARCINOGEN TREATMENT (STUDY DURATION: 24 MO), Route [Inhibitor]: GAVAGE, Strain/Sex: SWISS/MALE, Target Tissue: Type of Lesion: LIVER: HEPATOCELLULAR CARCINOMA, Dose [Carcinogen]: 0.2 MG ON D 1 AND 7 AFTER BIRTH THEN 0.4 MG ON D 14 AND 21, Promoter: NONE USED) of the same compound?
Answer: Its value is 7/24 (29%), 1/23 (4%), 86%, p<0.05.

Question: What about the “tumour outcome (control, treated, inhibition, significance)” value (Carcinogen: SAFROLE, 94-59-7, 5.5 MG IN 0.05 ML SUNFLOWER OIL 1/WK FOR 1 YR BEGINNING POST CARCINOGEN TREATMENT (STUDY DURATION: 24 MO), Route [Inhibitor]: GAVAGE, Strain/Sex: SWISS/MALE, Target Tissue: Type of Lesion: LUNG: PAPILLARY ADENOCARCINOMA, Dose [Carcinogen]: 0.2 MG ON D 1 AND 7 AFTER BIRTH THEN 0.4 MG ON D 14 AND 21, Promoter: NONE USED) of the same compound?
Answer: Its value is 5/24 (21%), 2/23 (9%), 57%, not calculated.

Question: And the “tumour outcome (control, treated, inhibition, significance)” value (Carcinogen: SAFROLE, 94-59-7, 5.5 MG IN 0.05 ML SUNFLOWER OIL 1/WK FOR 1 YR BEGINNING POST CARCINOGEN TREATMENT (STUDY DURATION: 24 MO), Route [Inhibitor]: GAVAGE, Strain/Sex: SWISS/MALE, Target Tissue: Type of Lesion: SKIN: SARCOMA, Dose [Carcinogen]: 0.2 MG ON D 1 AND 7 AFTER BIRTH THEN 0.4 MG ON D 14 AND 21, Promoter: NONE USED)?
Answer: The value was 2/24 (8%), 0/23 (0%), 100%, not calculated.

Question: What about the “tumour outcome (control, treated, inhibition, significance)” value (Carcinogen: SAFROLE, 94-59-7, 5.5 MG IN 0.05 ML SUNFLOWER OIL 1/WK FOR 1 YR BEGINNING POST CARCINOGEN TREATMENT (STUDY DURATION: 24 MO), Route [Inhibitor]: GAVAGE, Strain/Sex: SWISS/MALE, Target Tissue: Type of Lesion: SPLEEN: LYMPHOMA, Dose [Carcinogen]: 0.2 MG ON D 1 AND 7 AFTER BIRTH THEN 0.4 MG ON D 14 AND 21, Promoter: NONE USED) of the same compound?
Answer: The value was 6/24 (25%), 3/23 (13%), 48%, not calculated.

Question: And the “tumour outcome (control, treated, inhibition, significance)” value (Carcinogen: SAFROLE, 94-59-7, 5.5 MG IN 0.05 ML SUNFLOWER OIL 1/WK FOR 1 YR BEGINNING POST CARCINOMA TREATMENT (STUDY DURATION: 24 MO), Route [Inhibitor]: GAVAGE, Strain/Sex: SWISS/FEMALE, Target Tissue: Type of Lesion: SPLEEN: LYMPHOMA, Dose [Carcinogen]: 0.2 MG ON D 1 AND 7 AFTER BIRTH THEN 0.4 MG ON D 14 AND 21, Promoter: NONE USED)?
Answer: Its value is 9/18 (50%), 7/19 (37%), 26%, not calculated.

Question: And the “tumour outcome (control, treated, inhibition, significance)” value (Carcinogen: TANNIC ACID, 1401-55-4, 5.5 MG IN 0.05 ML SUNFLOWER OIL 1/WK FOR 1 YR BEGINNING POST CARCINOGEN TREATMENT (STUDY DURATION: 24 MO), Route [Inhibitor]: GAVAGE, Strain/Sex: SWISS/FEMALE, Target Tissue: Type of Lesion: LUNG: PAPILLARY ADENOCARCINOMA, Dose [Carcinogen]: 25 MG/KG BW ON D 1, 7, 14 AND 21 AFTER BIRTH, Promoter: NONE USED)?
Answer: The value was 2/8 (25%), 1/9 (11%), 56%, not calculated.

Question: What about the “tumour outcome (control, treated, inhibition, significance)” value (Carcinogen: TANNIC ACID, 1401-55-4, 5.5 MG IN 0.05 ML SUNFLOWER OIL 1/WK FOR 1 YR BEGINNING POST CARCINOGEN TREATMENT (STUDY DURATION: 24 MO), Route [Inhibitor]: GAVAGE, Strain/Sex: SWISS/FEMALE, Target Tissue: Type of Lesion: SPLEEN: LYMPHOMA, Dose [Carcinogen]: 25 MG/KG BW ON D 1, 7, 14 AND 21 AFTER BIRTH, Promoter: NONE USED) of the same compound?
Answer: The value was 4/8 (50%), 4/9 (44%), 12%, not calculated.

Question: What about the “tumour outcome (control, treated, inhibition, significance)” value (Carcinogen: TANNIC ACID, 1401-55-4, 5.5 MG IN 0.05 ML SUNFLOWER OIL 1/WK FOR 1 YR BEGINNING POST CARCINOGEN TREATMENT (STUDY DURATION: 24 MO), Route [Inhibitor]: GAVAGE, Strain/Sex: SWISS/MALE, Target Tissue: Type of Lesion: LUNG: PAPILLARY ADENOCARCINOMA, Dose [Carcinogen]: 25 MG/KG BW ON D 1, 7, 14 AND 21 AFTER BIRTH, Promoter: NONE USED) of the same compound?
Answer: Its value is 3/12 (25%), 2/12 (17%), 32%, not calculated.

Question: What about the “tumour outcome (control, treated, inhibition, significance)” value (Carcinogen: TANNIC ACID, 1401-55-4, 5.5 MG IN 0.05 ML SUNFLOWER OIL 1/WK FOR 1 YR BEGINNING POST CARCINOGEN TREATMENT (STUDY DURATION: 24 MO), Route [Inhibitor]: GAVAGE, Strain/Sex: SWISS/MALE, Target Tissue: Type of Lesion: SPLEEN: LYMPHOMA, Dose [Carcinogen]: 25 MG/KG BW ON D 1, 7, 14 AND 21 AFTER BIRTH, Promoter: NONE USED) of the same compound?
Answer: The value was 5/12 (42%), 3/12 (25%), 40%, not calculated.

Question: For COc1c(C)c(O)c(C(C)=O)c(O)c1Cc1c(O)c(CC=C(C)C)c(O)c(C(C)=O)c1O, which “tumour outcome (control, treated, inhibition, significance)” value (Carcinogen: 7,12-DIMETHYLBENZ[A]ANTHRACENE, 57-97-6, 162 NMOL IN 100 µL ACETONE 2/WK FOR 20 WK BEGINNING 1 WK POST CARCINOGEN DOSE (STUDY DURATION: 21 WK), Route [Inhibitor]: DERMAL, Strain/Sex: ICR/FEMALE, Target Tissue: Type of Lesion: SKIN: TUMOR, Dose [Carcinogen]: 100 UG ONCE, Promoter: 12-O-TETRADECANOYLPHORBOL-13-ACETATE, 16561-29-8) is on record?
Answer: Its value is 40%, 36%, 10%, not significant.

Question: What about the “tumour outcome (control, treated, inhibition, significance)” value (Carcinogen: 7,12-DIMETHYLBENZ[A]ANTHRACENE, 57-97-6, 1620 NMOL IN 100 µL ACETONE 2/WK FOR 20 WK BEGINNING POST CARCINOGEN DOSE (STUDY DURATION: 21 WK), Route [Inhibitor]: DERMAL, Strain/Sex: ICR/FEMALE, Target Tissue: Type of Lesion: SKIN: TUMOR, Dose [Carcinogen]: 100 UG ONCE, Promoter: 12-O-TETRADECANOYLPHORBOL-13-ACETATE, 16561-29-8) of the same compound?
Answer: The value was 52%, 0%, 100%, not calculated.
